Measurements published in patent publication US7893299B2, “Interleukin-1 and tumor necrosis factor-αmodulators; syntheses of such modulators and methods of using such modulators” (Nereus Pharmaceuticals, Inc., priority 2005, dated 2011).
Where two headings read alike, the source gives them in different places.

How the values were obtained:
[1] = system: TNF-α production in HPBMC; test: TNF-α levels in LPS-stimulated Human Peripheral Blood Mononuclear cells (ELISA); format: cell-based; conditions: 5 hr drug exposure, read-out: EC50 Inhibition of TNF-α production
Protocol: (§1) Eighty μl of 3.1×10^5/ml Human Peripheral Blood Mononuclear cells (HPBMC) were seeded in Costar 3904 96-well plate in LGM-3 medium and cultured for 12 hr at 37° C., 5% CO2 and 95% humidified air. 10 μl of 8-point half-log serial dilutions of LT-1-85, CC-3-19, CC-3-13P, formula (IIB-A1) and CC-3-22 prepared in LGM-3 medium was added to the cells and incubated for 1 hr. Subsequently, 10 μl of 500 ng/ml lipopolysaccharide (LPS) diluted in LGM-3 medium from 1 mg/ml stock solution was added to the cells and incubation proceeded for another 4 hr at 37° C., 5% CO2 and 95% humidified air. SB203580, a known p38 MAP kinase inhibitor and DMSO were used as positive and negative controls, respectively. After 4 hr stimulation with LPS, the level of TNF-α from each sample was analyzed by using the human TNF-α cytoset ELISA kit. EC50 values (the drug concentration at which 50% of the maximal observed TNF-α production is inhibited) were determined using a standard sigmoidal dose response curve fitting algorithm (Prism 2.0, GraphPad Software Inc). A duplicate set of cell plates were assayed for cell viability using the Resazurin dye after the cells were incubated with test compounds for 24 hr. The fluorescence of the reduction product of Resazurin was measured using a Fusion microplate fluorometer (Packard Bioscience) with λex=535 nm and λem=590 nm filters. EC50 values (the drug concentration at which 50% of the maximal observed growth inhibition is established) were determined using a standard sigmoidal dose response curve fitting algorithm (Prism 2.0, GraphPad Software Inc).

HPBMC = HPBMC cell viability, Resazurin; format: cell-based, Human; conditions: HPBMC, 24 hr drug exposure, read-out: EC50 Inhibition of cell growth
Protocol: as §1

PC-3 cells = test: cell growth inhibition, PC-3, Resazurin, 1% FBS; format: cell-based, Human; conditions: 48 hr of drug exposure
Protocol: (§2) Human prostate adenocarcinoma (PC-3; CRL-1435), multiple myeloma (RPMI 8226; CCL-155) and embryonic kidney (HEK-293; CRL-1573) cells were all purchased from ATCC and maintained in appropriate culture media. The cells were cultured in an incubator at 37° C. in 5% CO2 and 95% humidified air.
(§3) For cell growth inhibition assays, PC-3 and HEK-293 cells were seeded at 5×10^3 and 1.5×10^3 cells/well respectively in 90 μl media containing 1% (v/v) FBS into 96 well (Corning; 3904) black-walled, clear-bottom tissue culture plates and the plates were incubated overnight to allow cells to establish and enter log phase growth. RPMI 8226 cells were seeded at 2×10^4 cells/well respectively in 90 μl media containing 1% (v/v) FBS into 96 well plates on the day of the assay. 4 mg/ml stock solutions of the compounds were prepared in 100% DMSO and stored at −20° C. The compounds were serially diluted and added in triplicate to the test wells. LT-1-85 was tested at concentrations ranging from 27 μM to 8.6 nM. Concentrations ranging from 30 μM to 9.7 nM were tested for CC-3-13P. Formula (IIB-A1) was tested at concentrations ranging from 26 μM to 8.4 nM. The plates were returned to the incubator for 48 hours. The final concentration of DMSO was 0.25% in all samples.
(§4) Following 48 hours of drug exposure, 10 μl of 0.2 mg/ml Resazurin in Mg2+, Ca2+ free phosphate buffered saline was added to each well and the plates were returned to the incubator for 3-6 hours. Since living cells metabolize Resazurin, the fluorescence of the reduction product of Resazurin was measured using a Fusion microplate fluorometer (Packard Bioscience) with λex=535 nm and λem=590 nm filters. Resazurin dye in medium without cells was used to determine the background, which was subtracted from the data for all experimental wells. […] Where the maximum inhibition of cell growth was less than 50%, an EC50 value was not determined. The data in Table 25 summarize the growth inhibitory effects of LT-1-85, CC-3-13P and formula (IIB-A1) against HEK-293, PC-3 and RPMI 8226 cells. The EC50 values indicate that LT-1-85 and CC-3-13P are cytotoxic against HEK-293, PC-3 and RPMI 8226 cells. Formula (IIB-A1) is cytotoxic against RPMI 8226 cells.

RPMI 8226 cells = test: cell growth inhibition, RPMI 8226, Resazurin, 1% FBS; format: cell-based, Human; conditions: 48 hr of drug exposure
Protocol: as §2, §3, §4

[2] = system: TNF-α production in THP-1 cells; test: LPS-induced TNF-α production in differentiated THP-1 cells (FLISA); format: cell-based; conditions: Homo sapiens, read-out: Percent TNF-α Inhibition
Protocol: (§5) The ability to inhibit TNF-α production was analyzed in THP-1 cells, a human acute monocytic leukemia cell line that is widely used to assess monocyte functions. In order to induce maturation, THP-1 cells were plated at 1×10^6 cells/ml and pretreated with 5 nM PMA for two days. Differentiated THP-1 cells were pretreated with various concentrations of TTL3 or its analogs for 1 hour, followed by a 4 hour incubation with 1 μg of LPS (Sigma, St. Louse, Mo.). The p38 inhibitor (SB 203580; Sigma, St. Louis, Mo.) was used as a positive control. Supernatants were collected and stored at −80° C. until assayed for TNF-α activity. A resazurin assay was performed for each analog to evaluate the effects on cell metabolism and viability.
To detect the presence of human TNFα, fluorescent linked immunosorbent assay or FLISA was developed and optimized. 100 μl of beads (6 μm, Spherotech) coated with goat anti-mouse IgG (1 mg/ml, R and D Systems) were mixed with 4 μl of biotin-anti-hTNFα mouse IgG (0.1 mg/ml, R and D Systems) and 2 μl of FMAT Blue-streptavidin (0.1 mg/ml, Applied Biosystems). 50 μl of the mixtures was combined with 50 μl of the supernatant isolated from treated THP-1 cells and added to the black wall FLISA plates (Applied Biosystems) and incubated overnight. The plates were scanned at factory set PMT setting, and the values were plotted and analyzed by Applied Biosystems software.

THP-1 cells = test: resazurin viability assay in THP-1 cells; format: cell-based, human; conditions: * mild, ** marked reduction in viability, in % (unit assumed)
Protocol: as §5
A preparation of the dye resazurin, commercially-available as alamarBlue™ (Biosource International Inc., 820 Flynn Road, Camarillo, Calif.), was used for the cytotoxicity assays described herein. The assays and experiments described herein were conducted in substantially the same manner as described in the scientific literature, for example, in Magnani, E. and Bettini, E., “Resazurin detection of energy metabolism changes in serum-starved PC12 cells and of neuroprotective agent effect,” Brain Res Protoc., 2000 July; 5(3):266-72 and in Nociari M. M., Shalev A., Benias P., and Russo C. J, “A novel one-step, highly sensitive fluorometric assay to evaluate cell-mediated cytotoxicity,” Immunol. Methods 213, 157-167 (1998), see also U.S. Pat. No. 5,501,959, entitled “Antibiotic and Cytotoxic Drug Susceptibility Assays using Resazurin and Poising Agents,” the entire specification of which is incorporated herein by reference.

RPMI 8226 (MM) = test: 48 hr cytotoxicity, RPMI 8226; format: cell-based, human; conditions: Homo sapiens, RPMI-8226, 48 h
Protocol: (§6) Human colon adenocarcinoma HT-29 (ATCC# HTB-38), prostate adenocarcinoma PC-3 (ATCC# CRL-1435), breast adenocarcinoma MDA-MB231 (ATCC# HTB-26), Multiple Myeloma RPMI 8226 (ATCC# CCL-155) and U266 (ATCC # TIB-196) cell lines and human normal fibroblast CCD-27sk (ATCC# CRL-1475) were all purchased from ATCC (Manassas, Va.). The cells were maintained in their respective ATCC recommended culture media at 37° C., 5% CO2 and 95% humidified air.
(§7) The cytotoxicity assays were performed by seeding individual cell lines at appropriate density in the 96 well flat-bottomed plates and allowed to attach for 24 hours at 37° C., 5% CO2 and 95% humidified air (RPMI 8226 and U266 cells were plated in 96 well plates on the day of compound addition). Serially diluted NPI-1387 was added in triplicate to cells at concentrations ranging from 160 nM to 20 μM. Final concentration of 0.25% (v/v) DMSO was used as the vehicle control. Cell viability was assessed 48 hours later by measuring the fluorescence of the reduction product of Resazurin by a Fusion microplate fluorometer (PerkinElmer) with λex=535 nm and λem=590 nm filters. The IC50 values (the drug concentration at which 50% of the maximal observed cytotoxicity is established) were calculated in XLFit 3.0 or XLFit 4.0 (ID Business Solutions Ltd) using a sigmoidal dose response model.

U266 (MM) = test: 48 hr cytotoxicity, U266; format: cell-based, human; conditions: Homo sapiens, U-266, 48 h
Protocol: (§8) B16-F10 (ATCC; CRL-6475), DU 145 (ATCC; HTB-81), HEK293 (ATCC; CRL-1573), HT-29 (ATCC; HTB-38), LoVo (ATCC; CCL-229), MDA-MB-231 (ATCC; HTB-26), MIA PaCa-2 (ATCC; CRL-1420), NCI-H292 (ATCC; CRL-1848), OVCAR-3 (ATCC, HTB-161), PANC-1 (ATCC; CRL-1469), PC-3 (ATCC; CRL-1435), RPMI 8226 (ATCC; CCL-155) and U266 (ATCC; TIB-196) are maintained in appropriate culture media. The cells are cultured in an incubator at 37° C. in 5% CO2 and 95% humidified air.
(§9) For cell growth inhibition assays, B16-F10, DU 145, HEK293, HT-29, LoVo, MDA-MB-231, MIA PaCa-2, NCI-H292, OVCAR-3, PANC-1, PC-3, RPMI 8226 and U266 cells are seeded at 1.25×10^3, 5×10^3, 1.5×10^4, 5×10^3, 5×10^3, 1×10^4, 2×10^3, 4×10^3, 1×10^4, 7.5×10^3, 5×10^3, 2×10^4, 2.5×10^4 cells/well respectively in 90 μl complete media into Corning 3904 black-walled, clear-bottom tissue culture plates. 20 mM stock solutions of compounds of Formula II, IIA, and IIB are prepared in 100% DMSO, aliquoted and stored at −80° C. Compounds of Formula II, IIA, and IIB are serially diluted and added in triplicate to the test wells resulting in final concentrations ranging from of 20 μM to 0.2 pM. […]
(§10) Following 48 hours of drug exposure, 10 μl of 0.2 mg/ml resazurin (obtained from Sigma-Aldrich Chemical Co.) in Mg^2+, Ca^2+ free phosphate buffered saline is added to each well and the plates are returned to the incubator for 3-6 hours. Since living cells metabolize Resazurin, the fluorescence of the reduction product of Resazurin is measured using a Fusion microplate fluorometer (Packard Bioscience) with λex=535 nm and λem=590 nm filters. […]
(§11) The cytotoxicity assays were performed by seeding individual cell lines at appropriate density in the 96 well flat-bottomed plates and allowed to attach for 24 hours at 37° C., 5% CO2 and 95% humidified air (RPMI 8226 and U266 cells were plated in 96 well plates on the day of compound addition). […] Cell viability was assessed 48 hours later by measuring the fluorescence of the reduction product of Resazurin by a Fusion microplate fluorometer (PerkinElmer) with λex=535 nm and λem=590 nm filters. […]

PC3 (Prostate) = test: 48 hr cytotoxicity, PC-3; format: cell-based, human; conditions: Homo sapiens, 48 h
Protocol: as §8, §9, §10, §11

HT-29 (Colon) = test: 48 hr cytotoxicity, HT-29; format: cell-based, human; conditions: Homo sapiens, HT-29, 48 h
Protocol: as §6, §7

MDA-MB-231 (Breast) = test: 48 hr cytotoxicity, MDA-MB-231; format: cell-based, human; conditions: Homo sapiens, MDA-MB-231, 48 h
Protocol: as §8, §9, §10, §11

C=C[C@@]1(C)CCC=C2[C@H]1CC[C@@H]1[C@](C)(CNCCN)CCC[C@@]21C [CC-3-13P] gave an EC50 [1] of 0.4 µM, an EC50 ([1]; Homo sapiens, PBMC, 5 h) of 0.5 µM and an EC50 (HPBMC) of 0.7 µM. For the same molecule, the EC50 (HPBMC; Homo sapiens, 24 h) was 0.9 µM, the EC50 (PC-3 cells) was 4 µM and the EC50 (PC-3 cells; Homo sapiens, PC-3, 48 h) was 3.7 µM. It also gave an EC50 (RPMI 8226 cells) of 2.7 µM and an EC50 (RPMI 8226 cells; Homo sapiens, RPMI-8226, 48 h) of 2.3 µM.
C=C[C@@]1(C)CCC=C2[C@H]1CC[C@@H]1[C@](C)(CC(=O)CN3CCNCC3)CCC[C@@]21C [CC-3-19] gave an EC50 ([1]; Homo sapiens, PBMC, 5 h) of 3.3 µM and an EC50 (HPBMC; Homo sapiens, 24 h) of 3 µM.
C=C[C@@]1(C)CCC=C2[C@H]1CC[C@@H]1[C@](C)(COC(=O)CN3CCOCC3)CCC[C@@]21C [CC-3-22] was tested, and the inhibition at 0.1 µg/mL ([2]; 100 ng/ml) was 0%, the inhibition at 1 µg/mL ([2]; 1 ug/ml) was 0% and the inhibition at 10 µg/mL ([2]; 10 ug/ml) was 20%. The “Effect on Cell Viability” value (THP-1 cells; 100 ng/ml) was 100, the “Effect on Cell Viability” value (THP-1 cells; 1 ug/ml) was 100 and the “Effect on Cell Viability” value (THP-1 cells; 10 ug/ml) was 100. It also gave an EC50 ([1]; Homo sapiens, PBMC, 5 h) of 7.4 µM and an EC50 (HPBMC; Homo sapiens, 24 h) of 24 µM.
C=CC(=O)[C@]1(C)CCC[C@@]2(C)C3CCC4C[C@@]3(CCC21)CC4=C (stereo partly shown) [NPI-1388] gave an IC50 (RPMI 8226 (MM)) of 4.1 ± 1.1 µM, an IC50 (U266 (MM)) of 8.6 ± 6.4 µM and an IC50 (PC3 (Prostate)) of 10 ± 3 µM. It also gave an IC50 (HT-29 (Colon)) of 17 ± 4 µM and an IC50 (MDA-MB-231 (Breast)) of 14 ± 5 µM.
For C=C[C@@]1(C)CCC=C2[C@H]1CC[C@@H]1[C@](C)(C(=O)O)CCC[C@@]21C [TTL1], the “Effect on Cell Viability” value (THP-1 cells; 100 ng/ml) was 100 and the “Effect on Cell Viability” value (THP-1 cells; 1 ug/ml) was 100.
